Assay: xn = mol fraction of the nth substance listed
Details: Liquid, Pycnometric method

COC(=O)OC [dimethyl carbonate] + O=C=O
mass density [kg/m3]
Details | 332.85 K | 337.45 K
8220 kPa, x1 = 0.0242 | – | 212
8340 kPa, x1 = 0.0242 | – | 217
8440 kPa, x1 = 0.0242 | – | 222
8530 kPa, x1 = 0.0242 | – | 226
8640 kPa, x1 = 0.0242 | – | 231
8730 kPa, x1 = 0.0242 | – | 236
8820 kPa, x1 = 0.0242 | – | 242
8920 kPa, x1 = 0.0242 | – | 247
9030 kPa, x1 = 0.0242 | – | 253
9130 kPa, x1 = 0.0242 | – | 259
9240 kPa, x1 = 0.0242 | – | 266
9350 kPa, x1 = 0.0242 | – | 272
9460 kPa, x1 = 0.0242 | – | 279
9570 kPa, x1 = 0.0242 | – | 287
9690 kPa, x1 = 0.0242 | – | 295
9760 kPa, x1 = 0.1484 | – | 790
9810 kPa, x1 = 0.0242 | – | 304
9820 kPa, x1 = 0.118 | 773 | –
9910 kPa, x1 = 0.0242 | 353 | –
9920 kPa, x1 = 0.1484 | 826 | –
9930 kPa, x1 = 0.0242 | – | 311
9960 kPa, x1 = 0.086 | 682 | –
10010 kPa, x1 = 0.0242 | 362 | –
10030 kPa, x1 = 0.086 | 686 | –
10040 kPa, x1 = 0.118 | 780 | –
10060 kPa, x1 = 0.1484 | – | 795
10090 kPa, x1 = 0.0481 | 484 | –
10110 kPa, x1 = 0.0242 | 371 | –
10180 kPa, x1 = 0.118 | – | 737
10200 kPa, x1 = 0.0242 | 381 | –
10200 kPa, x1 = 0.086 | 695 | –
10250 kPa, x1 = 0.0481 | 506 | –
10290 kPa, x1 = 0.1484 | 832 | –
10300 kPa, x1 = 0.0242 | 391 | –
10350 kPa, x1 = 0.0481 | 517 | –
10350 kPa, x1 = 0.118 | 788 | 743
10380 kPa, x1 = 0.0242 | 399 | –
10380 kPa, x1 = 0.086 | 704 | –
10420 kPa, x1 = 0.0481 | 525 | –
10450 kPa, x1 = 0.0481 | – | 450
10450 kPa, x1 = 0.086 | – | 631
10480 kPa, x1 = 0.086 | – | 634
10490 kPa, x1 = 0.0242 | 410 | –
10520 kPa, x1 = 0.0481 | 538 | –
10530 kPa, x1 = 0.086 | 711 | –
10530 kPa, x1 = 0.1484 | – | 804
10550 kPa, x1 = 0.086 | – | 640
10580 kPa, x1 = 0.0242 | 417 | –
10620 kPa, x1 = 0.118 | – | 751
10630 kPa, x1 = 0.086 | – | 644
10640 kPa, x1 = 0.0481 | 550 | –
10670 kPa, x1 = 0.0481 | – | 470
10720 kPa, x1 = 0.1484 | 839 | –
10740 kPa, x1 = 0.0481 | 560 | –
10740 kPa, x1 = 0.118 | 796 | –
10780 kPa, x1 = 0.0481 | – | 481
10800 kPa, x1 = 0.086 | – | 654
10820 kPa, x1 = 0.1484 | – | 809
10860 kPa, x1 = 0.086 | 724 | –
10890 kPa, x1 = 0.0481 | 574 | 492
10940 kPa, x1 = 0.118 | – | 760
11010 kPa, x1 = 0.0481 | – | 504
11060 kPa, x1 = 0.0481 | 588 | –
11080 kPa, x1 = 0.086 | – | 669
11160 kPa, x1 = 0.0481 | – | 517
11200 kPa, x1 = 0.118 | 805 | –
11230 kPa, x1 = 0.1484 | – | 816
11250 kPa, x1 = 0.1484 | 846 | –
11260 kPa, x1 = 0.0481 | 603 | –
11270 kPa, x1 = 0.086 | 738 | –
11290 kPa, x1 = 0.118 | – | 769
11310 kPa, x1 = 0.0481 | – | 530
11380 kPa, x1 = 0.086 | – | 684
11480 kPa, x1 = 0.0481 | – | 543
11500 kPa, x1 = 0.0481 | 619 | –
11650 kPa, x1 = 0.0481 | – | 558
11700 kPa, x1 = 0.118 | – | 779
11720 kPa, x1 = 0.1484 | – | 823
11730 kPa, x1 = 0.1484 | 851 | –
11740 kPa, x1 = 0.118 | 815 | –
11750 kPa, x1 = 0.086 | 751 | –
11760 kPa, x1 = 0.0481 | 636 | –
11780 kPa, x1 = 0.086 | – | 700
11850 kPa, x1 = 0.0481 | – | 573
11990 kPa, x1 = 0.0481 | 650 | –
12100 kPa, x1 = 0.0481 | – | 589
12160 kPa, x1 = 0.118 | 822 | –
12190 kPa, x1 = 0.118 | – | 789
12240 kPa, x1 = 0.1484 | – | 830
12260 kPa, x1 = 0.1484 | 858 | –
12270 kPa, x1 = 0.086 | 765 | 716
12280 kPa, x1 = 0.0481 | 663 | –
12360 kPa, x1 = 0.0481 | – | 607
12630 kPa, x1 = 0.0481 | 678 | –
12660 kPa, x1 = 0.118 | – | 798
12700 kPa, x1 = 0.118 | 830 | –
12740 kPa, x1 = 0.1484 | – | 838
12750 kPa, x1 = 0.086 | 775 | –
12750 kPa, x1 = 0.1484 | 863 | –
12800 kPa, x1 = 0.086 | – | 732
13170 kPa, x1 = 0.086 | – | 742
13190 kPa, x1 = 0.118 | 837 | –
13220 kPa, x1 = 0.118 | – | 807
13230 kPa, x1 = 0.086 | 784 | –
13240 kPa, x1 = 0.1484 | – | 843
13270 kPa, x1 = 0.1484 | 869 | –
13640 kPa, x1 = 0.118 | – | 814
13700 kPa, x1 = 0.118 | 843 | –
13730 kPa, x1 = 0.086 | – | 755
13730 kPa, x1 = 0.1484 | – | 849
13760 kPa, x1 = 0.086 | 794 | –
13800 kPa, x1 = 0.1484 | 874 | –
14170 kPa, x1 = 0.118 | – | 821
14220 kPa, x1 = 0.086 | – | 766
14230 kPa, x1 = 0.118 | 850 | –
14270 kPa, x1 = 0.1484 | – | 855
14290 kPa, x1 = 0.086 | 803 | –
14520 kPa, x1 = 0.1484 | 881 | –
14710 kPa, x1 = 0.086 | – | 775
14720 kPa, x1 = 0.086 | 810 | –
14730 kPa, x1 = 0.118 | – | 829
14760 kPa, x1 = 0.118 | 856 | –
14780 kPa, x1 = 0.1484 | – | 861
15020 kPa, x1 = 0.1484 | 885 | –
15150 kPa, x1 = 0.086 | – | 783
15280 kPa, x1 = 0.118 | – | 836
15290 kPa, x1 = 0.118 | 861 | –
15330 kPa, x1 = 0.086 | 819 | –
15350 kPa, x1 = 0.1484 | – | 866
15460 kPa, x1 = 0.1484 | 889 | –
15740 kPa, x1 = 0.086 | – | 792
15740 kPa, x1 = 0.118 | 866 | –
15760 kPa, x1 = 0.086 | 825 | –
15770 kPa, x1 = 0.118 | – | 842
15800 kPa, x1 = 0.1484 | – | 870
15940 kPa, x1 = 0.1484 | 893 | –
16200 kPa, x1 = 0.086 | 831 | –
16250 kPa, x1 = 0.086 | – | 801
16370 kPa, x1 = 0.118 | 872 | –
16400 kPa, x1 = 0.118 | – | 849
16600 kPa, x1 = 0.1484 | – | 881
16670 kPa, x1 = 0.1484 | 899 | –

— the NIST ThermoML archive (doi:10.1021/je900691n)
